This is an account of results in ChEMBL document CHEMBL4837192, “The Bisindole Alkaloids Angustilongines M and A from Alstonia penangiana Induce Mitochondrial Apoptosis and G0/G1 Cell Cycle Arrest in HT-29 Cells through Promotion of Tubulin Polymerization” (J Nat Prod, 2021).

Experiment [1] has as its system HT-29. The experiment in a line: Antiproliferative activity against human HT-29 cells cultured as 3D spheroids assessed as inhibition of spheroid formation measured after 48 hrs by MTT assay. Format: functional, cell-based. As to conditions: HT-29, 48 h.
The test system of experiment [2] is KB. The experiment in a line: Cytotoxicity against human vincristine-sensitive KB cells assessed as cell growth inhibition measured after 72 hrs by MTT assay. Format: functional, cell-based. For orientation: Tetrazolium dyes change colour on reduction, which living cells bring about.
In experiment [3] the test system is KB. The experiment in a line: Cytotoxicity against human vincristine-resistant KB cells assessed as cell growth inhibition measured after 72 hrs by MTT assay. Format: functional, cell-based.
Experiment [4] concerns PC-3. Briefly: Cytotoxicity against human PC-3 cells assessed as cell growth inhibition measured after 72 hrs by MTT assay. Format: functional, cell-based. As to conditions: PC-3, 72 h.
Experiment [5] concerns MCF7. The experiment in a line: Cytotoxicity against human MCF7 cells assessed as cell growth inhibition measured after 72 hrs by MTT assay. The class given is functional, cell-based. As to conditions: MCF7, 72 h.
The test system of experiment [6] is MDA-MB-231. The experiment in a line: Cytotoxicity against human MDA-MB-231 cells assessed as cell growth inhibition measured after 72 hrs by MTT assay. Format: functional, cell-based. As to conditions: MDA-MB-231, 72 h.
Experiment [7] concerns HT-29. Briefly: Cytotoxicity against human HT-29 cells assessed as cell growth inhibition measured after 72 hrs by MTT assay. Format: functional, cell-based. As to conditions: HT-29, 72 h.
Experiment [8] concerns HCT-116. Briefly: Cytotoxicity against human HCT-116 cells assessed as cell growth inhibition measured after 72 hrs by MTT assay. Format: functional, cell-based. As to conditions: HCT-116, 72 h.
Experiment [9] concerns A549. Briefly: Cytotoxicity against human A549 cells assessed as cell growth inhibition measured after 72 hrs by MTT assay. The class given is functional, cell-based. As to conditions: A549, 72 h.
In experiment [10] the test system is CCD-18Co. Briefly: Cytotoxicity against human CCD-18Co cells assessed as cell growth inhibition measured after 72 hrs by MTT assay. The class given is cell-based.
Experiment [11] concerns HT-29. Briefly: Cytotoxicity against human HT-29 cells assessed as cell growth inhibition measured after 48 hrs by MTT assay. Format: functional, cell-based. As to conditions: HT-29, 48 h.
The test system of experiment [12] is CCD-18Co. Briefly: Cytotoxicity against human CCD-18Co cells assessed as cell growth inhibition measured after 48 hrs by MTT assay. Format: cell-based.
Experiment [13] can be described thus: Selectivity index, ratio of IC50 for human CCD-18Co cells to IC50 for human HT-29 cells assessed as cell growth inhibition measured after 48 hrs by MTT assay.
Experiment [14] concerns HT-29. Briefly: Antiproliferative activity in human HT-29 cells cultured as 3D spheroids assessed as reduction in 3D structure of spheroid morphology at IC50 measured after 48 hrs. The class given is functional, cell-based.
In experiment [15] the test system is HT-29. Briefly: Antiproliferative activity in human HT-29 cells cultured as 3D spheroids assessed as gradual disaggregation of peripheral cells at IC50 measured after 48 hrs. Format: functional, cell-based.
Experiment [16] concerns HT-29. Briefly: Anticlonogenic activity against human HT-29 cells assessed as inhibition of colony formation measured after 6 days by methylene blue staining based assay. Format: functional, cell-based. The conditions noted are these: dose 1.35-2.7 µM, time 6.0 day.
Experiment [17] concerns HT-29. The experiment in a line: Induction of cell cycle arrest in human HT-29 cells assessed as accumulation of cells at S phase at 2.7 uM measured after 24 hrs by propidium iodide staining based flow cytometry analysis (Rvb= 35.52%). The class given is functional. For orientation: In flow cytometry, cells or beads pass a laser one at a time.
Experiment [18] relates to HT-29. Briefly: Induction of cell cycle arrest in human HT-29 cells assessed as accumulation of cells at G1 phase at 2.7 uM measured after 24 hrs by propidium iodide staining based flow cytometry analysis (Rvb= 55.39%). The class given is functional.
In experiment [19] the test system is HT-29. Briefly: Induction of cell cycle arrest in human HT-29 cells assessed as accumulation of cells at G2 phase at 2.7 uM measured after 24 hrs by propidium iodide staining based flow cytometry analysis (Rvb= 9.09%). Format: functional.
Experiment [20] concerns HT-29. The experiment in a line: Induction of cell cycle arrest in human HT-29 cells assessed as accumulation of cells at S phase at 2.7 uM measured after 48 hrs by propidium iodide staining based flow cytometry analysis (Rvb= 35.52%). The class given is functional.
The subject of experiment [21] is HT-29. The experiment in a line: Induction of cell cycle arrest in human HT-29 cells assessed as accumulation of cells at G1 phase at 2.7 uM measured after 48 hrs by propidium iodide staining based flow cytometry analysis (Rvb= 55.39%). Format: functional.
Experiment [22] concerns HT-29. Briefly: Induction of cell cycle arrest in human HT-29 cells assessed as accumulation of cells at G2 phase at 2.7 uM measured after 48 hrs by propidium iodide staining based flow cytometry analysis (Rvb= 9.09%). The class given is functional.
Experiment [23] concerns HT-29. Briefly: Induction of cell cycle arrest in human HT-29 cells assessed as accumulation of cells at S phase at 2.7 uM measured after 72 hrs by propidium iodide staining based flow cytometry analysis (Rvb= 35.52%). The class given is functional.
The test system of experiment [24] is HT-29. The experiment in a line: Induction of cell cycle arrest in human HT-29 cells assessed as accumulation of cells at G1 phase at 2.7 uM measured after 72 hrs by propidium iodide staining based flow cytometry analysis (Rvb= 55.39%). Format: functional.
For experiment [25], the system named is HT-29. The experiment in a line: Induction of cell cycle arrest in human HT-29 cells assessed as accumulation of cells at G2 phase at 2.7 uM measured after 72 hrs by propidium iodide staining based flow cytometry analysis (Rvb= 9.09%). Format: functional.
For experiment [26], the system named is HT-29. Briefly: Induction of apoptosis in human HT-29 cells assessed as viable cells at 2.7 uM measured after 24 hrs by FITC-annexin V/propidium iodide- double staining based flow cytometry analysis (Rvb= 83.8%). Format: functional. The conditions noted are these: read-out: Activity.
In experiment [27] the test system is HT-29. Briefly: Induction of apoptosis in human HT-29 cells assessed as early apoptotic cells at 2.7 uM measured after 24 hrs by FITC-annexin V/propidium iodide- double staining based flow cytometry analysis (Rvb= 12.8%). The class given is functional.
Experiment [28] has as its system HT-29. The experiment in a line: Induction of apoptosis in human HT-29 cells assessed as late apoptotic cells at 2.7 uM measured after 24 hrs by FITC-annexin V/propidium iodide- double staining based flow cytometry analysis (Rvb= 3.0%). The class given is functional.
For experiment [29], the system named is HT-29. Briefly: Induction of apoptosis in human HT-29 cells assessed as dead cells at 2.7 uM measured after 24 hrs by FITC-annexin V/propidium iodide- double staining based flow cytometry analysis (Rvb= 0.4%). The class given is functional.
Experiment [30] relates to HT-29. The experiment in a line: Induction of apoptosis in human HT-29 cells assessed as viable cells at 2.7 uM measured after 48 hrs by FITC-annexin V/propidium iodide- double staining based flow cytometry analysis (Rvb= 83.8%). The conditions noted are these: read-out: Activity. The class given is functional.
Experiment [31] deals with HT-29. Briefly: Induction of apoptosis in human HT-29 cells assessed as early apoptotic cells at 2.7 uM measured after 48 hrs by FITC-annexin V/propidium iodide- double staining based flow cytometry analysis (Rvb= 12.8%). Format: functional.
The subject of experiment [32] is HT-29. Briefly: Induction of apoptosis in human HT-29 cells assessed as late apoptotic cells at 2.7 uM measured after 48 hrs by FITC-annexin V/propidium iodide- double staining based flow cytometry analysis (Rvb= 3.0%). The class given is functional.
For experiment [33], the system named is HT-29. Briefly: Induction of apoptosis in human HT-29 cells assessed as dead cells at 2.7 uM measured after 48 hrs by FITC-annexin V/propidium iodide- double staining based flow cytometry analysis (Rvb= 0.4%). The class given is functional.
In experiment [34] the test system is HT-29. Briefly: Induction of apoptosis in human HT-29 cells assessed as viable cells at 2.7 uM measured after 72 hrs by FITC-annexin V/propidium iodide- double staining based flow cytometry analysis (Rvb= 83.8%). The class given is functional. The conditions noted are these: read-out: Activity.
For experiment [35], the system named is HT-29. Briefly: Induction of apoptosis in human HT-29 cells assessed as early apoptotic cells at 2.7 uM measured after 72 hrs by FITC-annexin V/propidium iodide- double staining based flow cytometry analysis (Rvb= 12.8%). Format: functional.
The subject of experiment [36] is HT-29. The experiment in a line: Induction of apoptosis in human HT-29 cells assessed as late apoptotic cells at 2.7 uM measured after 72 hrs by FITC-annexin V/propidium iodide- double staining based flow cytometry analysis (Rvb= 3.0%). The class given is functional.
The subject of experiment [37] is HT-29. Briefly: Induction of apoptosis in human HT-29 cells assessed as dead cells at 2.7 uM measured after 72 hrs by FITC-annexin V/propidium iodide- double staining based flow cytometry analysis (Rvb= 0.4%). The class given is functional.
Experiment [38] concerns HT-29. The experiment in a line: Induction of apoptosis in human HT-29 cells assessed as activation of caspase-3 at 2.7 uM measured after 24 hrs by flow cytometry analysis (Rvb= 2.2%). Format: functional.
Experiment [39] deals with HT-29. Briefly: Induction of apoptosis in human HT-29 cells assessed as activation of caspase-3 at 2.7 uM measured after 48 hrs by flow cytometry analysis (Rvb= 2.2%). The class given is functional.
Experiment [40] deals with HT-29. The experiment in a line: Induction of apoptosis in human HT-29 cells assessed as activation of caspase-3 at 2.7 uM measured after 72 hrs by flow cytometry analysis (Rvb= 2.2%). Format: functional.
Experiment [41] deals with HT-29. Briefly: Induction of mitochondrial membrane potential loss in human HT-29 cells assessed as healthy cells at 2.7 uM measured after 24 hrs by JC-1 staining based flow cytometry analysis (Rvb= 91.4%). Format: functional.
Experiment [42] relates to HT-29. Briefly: Induction of mitochondrial membrane potential loss in human HT-29 cells assessed as apoptotic cells at 2.7 uM measured after 24 hrs by JC-1 staining based flow cytometry analysis (Rvb= 8.6%). The class given is functional.
The subject of experiment [43] is HT-29. Briefly: Induction of mitochondrial membrane potential loss in human HT-29 cells assessed as healthy cells at 2.7 uM measured after 48 hrs by JC-1 staining based flow cytometry analysis (Rvb= 91.4%). Format: functional.
The subject of experiment [44] is HT-29. Briefly: Induction of mitochondrial membrane potential loss in human HT-29 cells assessed as apoptotic cells at 2.7 uM measured after 48 hrs by JC-1 staining based flow cytometry analysis (Rvb= 8.6%). Format: functional.
Experiment [45] deals with HT-29. Briefly: Induction of mitochondrial membrane potential loss in human HT-29 cells assessed as healthy cells at 2.7 uM measured after 72 hrs by JC-1 staining based flow cytometry analysis (Rvb= 91.4%). The class given is functional.
The test system of experiment [46] is HT-29. Briefly: Induction of mitochondrial membrane potential loss in human HT-29 cells assessed as apoptotic cells at 2.7 uM measured after 72 hrs by JC-1 staining based flow cytometry analysis (Rvb= 8.6%). Format: functional.
Experiment [47] addresses Tubulin (Homo sapiens) (UniProt P68371+Q9H4B7+P0DPH7+P68366+Q13509+Q71U36+P04350+Q3ZCM7+P07437+P68363+Q9BQE3+Q6PEY2+Q13885+Q9BVA1+Q9BUF5). The experiment in a line: Induction of tubulin polymerization in human HT-29 cells assessed as stabilization of microtubules at 10 uM by spectrophotometric analysis. The class given is cell-based.

The structures appear in SMILES notation. The source made the active and inactive calls. The rule behind the calls is not given here. Bounds are passed on as bounds.

For the molecule `O=c1[nH]cc(F)c(=O)[nH]1` [FLUOROURACIL], the IC50 (as a rule, the point on the concentration scale where inhibition reaches its midpoint) in experiment [1] was 25.9 µM.

Consider `C/C=C1/CN2[C@H]3C[C@@H]1[C@@H](CO)[C@@H]2Cc1c3n(C)c2ccc3c(c12)[C@H](C)[C@@H]1[C@@H](OC[C@@H]2[C@H]1C[C@H]1c4c(c5ccccc5n4C)C[C@@H]2N1C)O3`, for which the IC50 in [2] was 5 µM; in experiment [3] it was 7.6 µM; in experiment [4] it was 6.1 µM; in experiment [5], > 10 µM; in experiment [6] it was 5.9 µM; in experiment [7] it was 0.2 µM. The IC50 in [8] was 4.7 µM; in [9] it was 2.1 µM; in [10], > 10 µM; in experiment [11], 2.7 µM; in experiment [12], 14.1 µM; in experiment [1], 3.8 µM. In addition, in experiment [13], the “Ratio IC50” value was 5.32. Moreover, the outcome in experiment [14], in [15] and in experiment [47] was Active. Further, the Activity entry in [16] is “Dose-Dependent Effect”; in experiment [17], 19.88%; in experiment [18], 65.56%; in [19], 14.56%; in [20], 21.76%; in experiment [21] it was 66.11%. The Activity turned out to be 12.12% in experiment [22]; 24.39% in experiment [23]; 67.94% in experiment [24]; 7.67% in experiment [25]; 8.7% in experiment [27]; 12.8% in [28]. In addition, the Activity was found to be 0.9% in [29]; 32% in experiment [31]; 7.1% in experiment [32]; 0.1% in experiment [33]; 40.3% in experiment [35]; 41.6% in experiment [36]. Moreover, the Activity in experiment [37] was found to be 0.4%; in [38], 1.9%; in experiment [39], 26%; in experiment [40], 67.8%; in experiment [41], 90.9%; in experiment [42], 9.1%. Further, the Activity is reported as 63.9% in [43], 36.1% in experiment [44], 36.6% in experiment [45] and 63.4% in experiment [46]. Moreover, the viability at 2.7 µM in experiment [26] came out at 77.6%; in experiment [30], 60.8%; in [34] it was 17.7%.
